According to ChEMBL document CHEMBL1201862, “PubChem BioAssay data set” (2004):
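Cells were grown in 96-well plates and exposed to each compound for 48 hours at five concentrations; endpoints were interpolated linearly between bracketing concentrations, or set to the highest concentration if not reached. GI50: concentration for 50% inhibition of growth.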 The source made the active and inactive calls. No stated cut-off is given here; in the data, active = GI50 up to about 1.1 µM and inactive = higher.

Assays:
Assay in all cases: inhibition of tumour cell growth, NCI panel, 48 h
A498 = system: A498
ACHN = system: ACHN
CAKI-1 = system: CAKI-1
COLO 205 = system: COLO 205
EKVX = system: EKVX
HCC 2998 = system: HCC 2998
LOX IMVI = system: LOX IMVI
MCF7 = system: MCF7
MDA-MB-435 = system: MDA-MB-435
MDA-N = system: MDA-N
NCI-H522 = system: NCI-H522
NCI/ADR-RES = system: NCI/ADR-RES
OVCAR-5 = system: OVCAR-5
PC-3 = system: PC-3
RPMI-8226 = system: RPMI-8226
SF-539 = system: SF-539
SK-MEL-2 = system: SK-MEL-2
SR = system: SR
UO-31 = system: UO-31

Measured: GI50

COc1ccc(C2SCC(=O)N2c2ccc(-n3c(-c4ccccc4)nc4ccccc4c3=O)cc2)cc1OC (centres undefined)
inactive: A498 > 100 µM | ACHN > 100 µM | CAKI-1 > 100 µM | COLO 205 > 100 µM | EKVX > 100 µM | HCC 2998 > 100 µM | LOX IMVI > 100 µM | MCF7 > 100 µM | MDA-MB-435 > 100 µM | MDA-N > 100 µM | NCI-H522 90.6 µM | NCI/ADR-RES > 100 µM | OVCAR-5 > 100 µM | PC-3 71.3 µM | RPMI-8226 > 100 µM | SF-539 > 100 µM | SK-MEL-2 > 100 µM | SR > 100 µM | UO-31 12.9 µM

C=C(C)C(=O)O[C@H]1C/C(CO)=C/CCC(=C)C(OC(C)=O)[C@H]2OC(=O)C(=C)[C@H]12 (some centres undefined)
inactive: A498 18.7 µM | ACHN 8.45 µM | CAKI-1 9.84 µM | COLO 205 4.5 µM | EKVX > 10 µM | HCC 2998 12.5 µM | LOX IMVI 4.12 µM | MCF7 4.39 µM | MDA-MB-435 4.61 µM | MDA-N 4.49 µM | NCI-H522 3.45 µM | NCI/ADR-RES 4.7 µM | OVCAR-5 38.5 µM | PC-3 14.6 µM | RPMI-8226 1.82 µM | SF-539 13.6 µM | SK-MEL-2 7.18 µM | SR 3.51 µM | UO-31 5.19 µM

CCOC(=O)/C=C/CCO[Si](C)(C)C(C)(C)C
inactive: A498 > 100 µM | ACHN > 100 µM | CAKI-1 > 100 µM | COLO 205 > 100 µM | EKVX > 100 µM | HCC 2998 > 100 µM | LOX IMVI 50.5 µM | MCF7 97.5 µM | MDA-MB-435 > 100 µM | MDA-N > 100 µM | NCI-H522 > 100 µM | NCI/ADR-RES > 100 µM | OVCAR-5 > 100 µM | PC-3 > 100 µM | RPMI-8226 > 100 µM | SF-539 > 100 µM | SK-MEL-2 > 100 µM | SR > 100 µM | UO-31 > 100 µM

CC1CCC2c3c([nH]c4ccccc34)C3C(=O)N(C4CCCCC4)C(=O)C3C2C1 (centres undefined)
inactive: A498 22 µM | ACHN 13.5 µM | CAKI-1 14 µM | COLO 205 > 100 µM | EKVX 14.8 µM | HCC 2998 > 100 µM | LOX IMVI 52.5 µM | MCF7 > 10 µM | MDA-MB-435 55.3 µM | MDA-N 33.3 µM | NCI-H522 > 100 µM | NCI/ADR-RES 36.5 µM | OVCAR-5 18.5 µM | PC-3 38.3 µM | RPMI-8226 38.2 µM | SF-539 21.9 µM | SK-MEL-2 17.4 µM | SR 29.2 µM | UO-31 19.8 µM

Cc1cc(O)c2c(c1)C(=O)C=C(Br)C2=O
inactive: A498 18.9 µM | ACHN 15.6 µM | CAKI-1 12.5 µM | COLO 205 6.32 µM | EKVX 24.8 µM | HCC 2998 > 43.7 µM | LOX IMVI 12.8 µM | MCF7 7.82 µM | MDA-MB-435 14.5 µM | MDA-N 15.3 µM | NCI-H522 2.94 µM | NCI/ADR-RES 19.2 µM | OVCAR-5 16.1 µM | PC-3 17.8 µM | RPMI-8226 6.75 µM | SF-539 16 µM | SK-MEL-2 17.1 µM | SR 1.3 µM | UO-31 15.5 µM

c1ccc(-c2cc(-c3cc(-c4ccccn4)[nH]n3)n[nH]2)nc1
inactive: A498 > 100 µM | ACHN > 100 µM | CAKI-1 > 100 µM | COLO 205 > 100 µM | EKVX 25.4 µM | HCC 2998 28.6 µM | LOX IMVI 94.4 µM | MCF7 > 100 µM | MDA-MB-435 > 100 µM | MDA-N 77.3 µM | NCI-H522 > 100 µM | NCI/ADR-RES 44.5 µM | OVCAR-5 > 100 µM | PC-3 > 100 µM | RPMI-8226 70.6 µM | SF-539 > 100 µM | SK-MEL-2 > 100 µM | SR 17.6 µM | UO-31 22.6 µM
